Test results as given in paper PMC11161644, “An effective and rapidly degradable disinfectant from disinfection byproducts” (Nature Communications, 2024).
Values joined by “and” are separate entries in the source; they are usually repeats but may differ in a detail not shown here. Identical values can stand only once.

What was measured:
[1] = test system: bacteriophage MS2 (ATCC 15597-B1); experiment: Inactivation of bacteriophage MS2 (double-layer agar, contact time 5 min); format: cell-based; conditions: for log reduction at 300 µg/mL: Escherichia phage MS2, ATCC15597, 5 min, pH 7.2, MS2, dose 300 mg L-1, pH 7.2, contact time 5 min, read-out: Log (N/N0)
Experimental: The bacteriophage MS2 (ATCC 15597-B1) was propagated in the host E. coli (ATCC 15597) in Tryptone Soya broth at 37 °C for 16 h. The viruses were separated from the bacterial debris and purified by centrifuging the phage culture (4000×g, 10 min, 4 °C) and filtering the lysate with a 0.2 μm polyethersulfone sterile filter. The filtrate was then diluted in PBS (10 mM, pH 7.2) to an initial MS2 concentration of 10^9‒10^10 plaque-forming units […]. To initiate the disinfection experiments, a series of DBP doses were added to the MS2 suspension at room temperature (22 ± 1 °C). […] Briefly, serial 10-fold dilutions were conducted for the disinfected samples and the control sample without disinfection. Each dilution was mixed with the host E. coli in the soft agar and the mixture was immediately spread onto a Petri dish with Tryptone Soya agar. After the Petri dishes were incubated at 37 °C for 16 h, the plaque-forming units were counted. The disinfection experiments were performed in duplicate. All the materials for the disinfection experiments were autoclaved before use.

[2] = test system: C. albicans (ATCC 14053); experiment: Inactivation of C. albicans (contact time 5 min); format: cell-based, Candida albicans; conditions: for log reduction at 300 µg/mL: Candida albicans, ATCC14053, 5 min, pH 7.2, C. albicans, dose 300 mg L-1, pH 7.2, contact time 5 min, read-out: Log (N/N0)
Experimental: The chemicals and reagents used are detailed in Supplementary Note 1. The bacteria E. coli (ATCC 25922) and S. aureus (ATCC 25923) were cultured aerobically in Luria-Bertani broth (Sigma-Aldrich) and Tryptone Soya broth (Oxoid), respectively, at 37 °C for 16 h. The fungus C. albicans (ATCC 14053) was aerobically cultured in Sabouraud Dextrose broth (Difco) at 37 °C for 24 h. The microorganism cells were harvested by centrifugation at 1200×g (10 min, 4 °C) and resuspended in phosphate-buffered saline (PBS, 10 mM, pH 7.2). The disinfection experiments were performed in PBS solutions (10 mM, pH 7.2) with an initial concentration of E. coli, S. aureus, or C. albicans of 10^6‒10^7 cells per milliliter. A contact time of 5 min was used in accordance with the recommended time range of 0.25–10 min by USEPA for surface disinfection. Preliminary tests were conducted to determine the appropriate range of DBP doses. The appropriate dose range was established when the lowest and highest doses could achieve <1-log and >3-log of microbial inactivation, respectively. Based on the preliminary results, a series of doses of DBPs were added to the cell suspensions at room temperature (22 ± 1 °C). After the contact time of 5 min, the microorganism cells were enumerated following a membrane filter method. Briefly, serial 10-fold dilutions were conducted for the disinfected samples and the control sample without disinfection. Each diluted suspension was subjected to filtration through 0.45-μm membrane, which was then placed on a petri dish. The Petri dishes containing E. coli, S. aureus, and C. albicans were incubated in m-FC medium (Becton Dickinson & Co) at 45 °C for 24 h, in Tryptone Soya broth at 37 °C for 24 h and in Sabouraud Dextrose broth at 37 °C for 24 h, respectively. After incubation, the colony-forming units within a statistically reasonable range (20–80) were counted.

[3] = test system: P. dumerilii embryos; experiment: Developmental toxicity assay with P. dumerilii embryos, dilution factor of in-use concentration (EC50,DF), also after degradation in darkness; format: in vivo, Platynereis dumerilii; conditions: for Normal development: 2,6-DCQ
From the text: The DBP doses for 3-log E. coli reduction (pH 7.2) were set as the in-use concentrations, which were serially diluted and added to the P. dumerilii embryos at 12-h postfertilization. A dilution factor was defined as the ratio of the in-use concentration to the exposure concentration. Each exposure set contained a control sample (i.e., the embryos at 12-h postfertilization developed in seawater without the addition of DBPs). By 24-h postfertilization, normally developed embryos should have reached the first larval stage. An inverted stereomicroscope (×40 magnification) was used to observe the larvae. The normal development percentage was calculated as the ratio of normally developed embryos to total embryos. By plotting the curve of the normal development percentage versus the dilution factor, the EC50,DF value (i.e., the dilution factor corresponding to 50% of the normal development percentage of the control sample) was obtained using SigmaPlot 12. The developmental toxicity test was conducted in duplicate.

With `Oc1cc(I)c(O)cc1I` [2,5-DIHQ, 2,5-diiodohydroquinone] the log reduction at 300 µg/mL [1] was 1.11, the log reduction at 300 µg/mL [2] was 0.393 and the “Normal development (%)” value ([3]; dilution factor 86.0274) was 0.8729% and 0%. The “Normal development (%)” value ([3]; dilution factor 103.233) was 7.707% and 3.405%, the “Normal development (%)” value ([3]; dilution factor 129.041) was 16.1617% and 11.8279% and the “Normal development (%)” value ([3]; dilution factor 172.055) was 46.0177% and 46.8181%. For the same molecule, the “Normal development (%)” value ([3]; dilution factor 258.082) was 63.2599% and 58.9623% and the “Normal development (%)” value ([3]; dilution factor 516.165) was 88.6525% and 83.3333%.
`Oc1ccc(I)cc1I` [2,4-DIPh, 2,4-diiodophenol] was tested, and the log reduction at 300 µg/mL [1] was 2.17, the log reduction at 300 µg/mL [2] was 5.49 and the “Normal development (%)” value ([3]; dilution factor 14.7221) was 3.475% and 5.221%. For the same molecule, the “Normal development (%)” value ([3]; dilution factor 16.1943) was 15.5532% and 11.251%, the “Normal development (%)” value ([3]; dilution factor 17.0467) was 28.4871% and 30.5605% and the “Normal development (%)” value ([3]; dilution factor 17.9937) was 62.9083% and 58.6107%. For the same molecule, the “Normal development (%)” value ([3]; dilution factor 19.0522) was 71.0249% and 62.3085% and the “Normal development (%)” value ([3]; dilution factor 21.5924) was 85.4546% and 82.7272%.
With `O=C1C=C(Cl)C(=O)C(Cl)=C1` [2,6-DCQ, 2,6-dichlorobenzoquinone] the “Dose for achieving 3-log inactivation of MS2” value ([1]; pH 7.2, contact time 5 min) was 46.1 mg L−1, the “MS2 inactivation rate constant k” value ([1]; pH 7.2, contact time 5 min) was 14200 µL/min/mg and the “C. albicans inactivation rate constant k” value ([2]; pH 7.2, contact time 5 min) was 31300 µL/min/mg. For the same molecule, the “Dose for achieving 3-log inactivation of C. albicans” value ([2]; pH 7.2, contact time 5 min) was 35.4 mg L−1, the Normal development ([3]; degradation 0 h, dilution factor 12.8) was 7.407% and 6.667% and the Normal development ([3]; degradation 0 h, dilution factor 17.0667) was 16.2963% and 20.7921%. The Normal development ([3]; degradation 0 h, dilution factor 21.3333) was 42.1875% and 37.2727%, the Normal development ([3]; degradation 0 h, dilution factor 25.6) was 62.0155% and 62.3077% and the Normal development ([3]; degradation 0 h, dilution factor 32) was 80% and 80.822%. For the same molecule, the Normal development ([3]; degradation 0 h, dilution factor 42.6667) was 76.7442% and 82.4428%, the Normal development ([3]; degradation 1 h, dilution factor 6.4) was 1.886% and 1.145% and the Normal development ([3]; degradation 1 h, dilution factor 8.5333) was 4.186% and 11.8136%. The Normal development ([3]; degradation 1 h, dilution factor 10.6667) was 24.138% and 24.6154%, the Normal development ([3]; degradation 1 h, dilution factor 12.8) was 51.5152% and 47.1698% and the Normal development ([3]; degradation 1 h, dilution factor 16) was 70.5883% and 65.2173%. The Normal development ([3]; degradation 2 h, dilution factor 6.4) was 11.0368% and 10.1754%, the Normal development ([3]; degradation 2 h, dilution factor 8.5333) was 46.773% and 42.9328% and the Normal development ([3]; degradation 2 h, dilution factor 10.6667) was 58.0645% and 64.2277%. The Normal development ([3]; degradation 2 h, dilution factor 12.8) was 77.7778% and 71.0938%, the Normal development ([3]; degradation 2 h, dilution factor 16) was 82.2282% and 85.1792% and the Normal development ([3]; degradation 4 h, dilution factor 1.28) was 3.429% and 2.688%. The Normal development ([3]; degradation 4 h, dilution factor 1.6) was 15.8884% and 20.3842%, the Normal development ([3]; degradation 4 h, dilution factor 1.8286) was 27.1674% and 32.6748% and the Normal development ([3]; degradation 4 h, dilution factor 2.1333) was 54.2087% and 56.2379%. For the same molecule, the Normal development ([3]; degradation 4 h, dilution factor 2.8444) was 78.1453% and 71.7507%, the Normal development ([3]; degradation 4 h, dilution factor 4.2667) was 76.1253% and 77.0995% and the Normal development ([3]; degradation 6 h, dilution factor 0.8) was 0%. For the same molecule, the Normal development ([3]; degradation 6 h, dilution factor 0.9143) was 0%, the Normal development ([3]; degradation 6 h, dilution factor 1.0667) was 6.421% and 4.805% and the Normal development ([3]; degradation 6 h, dilution factor 1.28) was 19.2308% and 16.923%. The Normal development ([3]; degradation 6 h, dilution factor 1.6) was 44.5256% and 45.8716%, the Normal development ([3]; degradation 6 h, dilution factor 1.8286) was 55.6999% and 52.4319% and the Normal development ([3]; degradation 10 h, dilution factor 0.3657) was 0%. For the same molecule, the Normal development ([3]; degradation 10 h, dilution factor 0.4267) was 10.4446% and 5.949%, the Normal development ([3]; degradation 10 h, dilution factor 0.512) was 22.4806% and 12.844% and the Normal development ([3]; degradation 10 h, dilution factor 0.64) was 50% and 42.3728%. For the same molecule, the Normal development ([3]; degradation 10 h, dilution factor 0.8533) was 73.1885% and 72.3577%, the Normal development ([3]; degradation 10 h, dilution factor 1.28) was 86.5288% and 89.8492% and the Normal development ([3]; degradation 24 h, dilution factor 0.2844) was 11.3922% and 10.426%. The Normal development ([3]; degradation 24 h, dilution factor 0.32) was 28.4579%, the Normal development ([3]; degradation 24 h, dilution factor 0.3657) was 46.3636% and 52.9132% and the Normal development ([3]; degradation 24 h, dilution factor 0.4267) was 72.0505% and 66.5657%. The Normal development ([3]; degradation 24 h, dilution factor 0.512) was 75.7656% and 68.6094%, the Normal development ([3]; degradation 24 h, dilution factor 0.64) was 71.3237% and 68.0033% and the Normal development ([3]; degradation 48 h, dilution factor 0.2695) was 37.7015% and 37.2985%. For the same molecule, the Normal development ([3]; degradation 48 h, dilution factor 0.2844) was 52.938% and 47.9316%, the Normal development ([3]; degradation 48 h, dilution factor 0.32) was 57.0093% and 59.2105% and the Normal development ([3]; degradation 48 h, dilution factor 0.3657) was 74.6032% and 77.2414%. The Normal development ([3]; degradation 48 h, dilution factor 0.4267) was 81.3111% and 83.4889%, the “Toxicity relative to PCMX (times less toxic)” value ([3]; after 48-h degradation in seawater in darkness) was 31 times and the “EC50,DF as share of EC50,DF of PCMX” value ([3]; after 48 h degradation in darkness) was 3.0%.
In the case of `Oc1cc(Br)c(O)cc1Br` [2,5-DBHQ, 2,5-dibromohydroquinone], the “Normal development (%)” value ([3]; dilution factor 366.306) is reported as 0%, the “Normal development (%)” value ([3]; dilution factor 439.567) is reported as 8.76% and 2.206% and the “Normal development (%)” value ([3]; dilution factor 549.459) is reported as 13.3508% and 11.7022%. For the same molecule, the “Normal development (%)” value ([3]; dilution factor 732.612) was 55.6452% and 53.271%, the “Normal development (%)” value ([3]; dilution factor 1098.92) was 74.7747% and 73.7705% and the “Normal development (%)” value ([3]; dilution factor 2197.84) was 91.7072% and 82.9908%.
